These results are taken from patent US20130123364A1 (priority 2011, published 2013).

Structures are written as SMILES. “Also recorded” adds a separate entry of the source.

The test deals with lung alveoli of mice damaged by toxic tobacco smoke exposure. As to the kind of experiment: Mouse model of intoxication by chronic inhalation of tobacco smoke, L-NIL in drinking water. The format is in vivo. The method, then: The regeneration and healing of the lung alveoli by L-NIL is shown in a mouse model of intoxication by chronic inhalation of tobacco smoke. In this model, mice are exposed to a stream of tobacco smoke in a concentration of 140 mg/m^3 for 6 h per day, 5 days a week over a period of up to 8 month.
The structural and functional pulmonary changes due to toxic smoke exposure were quantified with techniques suitable for this purpose. To assess the degree of alveolar damage, the mean linear intercept, alveolar septal wall thickness and the air space volume was quantified.
Parameters for the extent of vascular remodeling comprise the measurement of vascular wall thickness, staining for alpha-smooth muscle actin and von-Willebrand factor as well as the mean cross-sectional area of the vessels.
Functional measurements include the quantification of the lung function in spontaneously breathing as well as artificially ventilated mice with respect to airway resistance, lung compliance and volume flow. To evaluate functional changes of the vessels, lungs are investigated in an isolated perfused and ventilated experimental set-up, and pulmonary vascular resistance and reactivity are measured. The vascular reactivity is determined by quantifying the extent of vasoconstriction after addition of phenylephrine and can be deduced from dose/effect curves.
In a second experiment, L-NIL was administered orally via drinking water in a concentration of 600 μg/ml for a period for 3 months to treat mice with alveolar damage/destruction as a result of 8 months of toxic smoke exposure.

Setting [1] is: curative: oral L-NIL in drinking water 600 μg/ml for 3 months after 8 months of toxic smoke exposure.

Turning to `[H]/N=C(/C)NCCCC[C@H](N)C(=O)O` [L-NIL, N^6-(1-iminoethyl)-L-lysine], the “Proliferation, PCNA-positive cells in lung sections (FIGS. 5A to 5D)” value (L-NIL for 3 month after lung exposure to toxic smoke for 8 months) was “induction of proliferation”. Further, under “L-NIL treatment after destruction by toxic tobacco smoke exposure”, the “Elastic fibers network, elastin-stained lungs (FIGS. 3A to 3D)” value is recorded as “regeneration of the elastic fibers network”. Further, the “Total number of alveoli assessed by quantitative stereology (FIG. 2)” value (L-NIL treatment after toxic tobacco smoke exposure) was “regeneration of alveoli”. Besides, under setting [1], the Lung function entry is reported as “lung function improvement” and the “Regeneration of alveolar lung structure” value was “regeneration of the damaged or destroyed lung alveoli; also recorded: complete regeneration of the alveolar lung structure”. Also, for the setting “preventive: oral L-NIL in drinking water 600 μg/ml in parallel to smoke exposure over 8 months”, the “Protection against alveolar damage/destruction (alveolar morphometry and lung functional measurements)” value was “complete protection against alveolar damage/destruction”.
